Assay results published in the NIST ThermoML archive (doi:10.1016/j.fluid.2013.06.013).

Key:
[1] = 298.15 K; 101.33 kPa; Liquid; Vibrating tube method
[2] = refractive index (Na D-line) (dimensionless); conditions: 298.15 K; 101.33 kPa; Liquid; Standard Abbe refractometry
[3] = xn = mol fraction of the nth substance listed; conditions: 298.15 K, 101 kPa, Liquid, Vibrating tube method
[4] = refractive index (Na D-line) (dimensionless); xn = mol fraction of the nth substance listed; conditions: 298.15 K, 101 kPa, Liquid, Standard Abbe refractometry

CCCC[n+]1ccn(C)c1.O=S(=O)([N-]S(=O)(=O)C(F)(F)F)C(F)(F)F
Conditions | mass density [kg/m3] | refractive index
[1] | 1436.16 | –
[2] | – | 1.42689

CCCCCCCCCCCCCC[P+](CCCCCC)(CCCCCC)CCCCCC.[Cl-] [trihexyl(tetradecyl)phosphonium chloride] + CC(=O)CC(C)=O
Conditions | mass density, [3] [kg/m3] | refractive index, [4]
x2 = 0.0586 | 892.92 | 1.4811
x2 = 0.0977 | 893.66 | 1.481
x2 = 0.1957 | 895.67 | 1.481
x2 = 0.2949 | 898.11 | 1.4805
x2 = 0.3989 | 901.25 | 1.4799
x2 = 0.4985 | 905.14 | 1.478
x2 = 0.6092 | 910.91 | 1.4759
x2 = 0.7096 | 918.02 | 1.4741
x2 = 0.8008 | 926.85 | 1.4705
x2 = 0.9036 | 942.76 | 1.4633
x2 = 0.9508 | 953.8 | 1.458

CCCCCCCCN(CCCCCCCC)CCCCCCCC [trioctylamine]
Conditions | mass density [kg/m3] | refractive index
[1] | 807.46 | –
[2] | – | 1.44758

CCCCCCCC[n+]1ccn(C)c1.F[B-](F)(F)F [1-methyl-3-octylimidazolium tetrafluoroborate]
Conditions | mass density [kg/m3] | refractive index
[1] | 1101.99 | –
[2] | – | 1.43306

CC(CC(C)(C)C)CP(=O)([O-])CC(C)CC(C)(C)C.CCCCCCCCCCCCCC[P+](CCCCCC)(CCCCCC)CCCCCC
Conditions | mass density [kg/m3] | refractive index
[1] | 886.43 | –
[2] | – | 1.47125

O [water]
Conditions | refractive index
[2] | 1.33249

CCCCCCCCCCCCCC[P+](CCCCCC)(CCCCCC)CCCCCC.[Cl-] [trihexyl(tetradecyl)phosphonium chloride]
Conditions | mass density [kg/m3] | refractive index
[1] | 891.82 | –
[2] | – | 1.48175

CCn1cc[n+](C)c1.O=S(=O)([N-]S(=O)(=O)C(F)(F)F)C(F)(F)F
Conditions | mass density [kg/m3] | refractive index
[1] | 1518.86 | –
[2] | – | 1.42293

CCCCn1cc[n+](C)c1.F[P-](F)(F)(F)(F)F [1-butyl-3-methylimidazolium hexafluorophosphate]
Conditions | mass density [kg/m3] | refractive index
[1] | 1366.95 | –
[2] | – | 1.40926

CCCCCCCCCCCCCC[P+](CCCCCC)(CCCCCC)CCCCCC.N#C[N-]C#N [tetradecyl(trihexyl)phosphonium dicyanamide] + CC(=O)CC(C)=O
Conditions | mass density, [3] [kg/m3] | refractive index, [4]
x2 = 0.0599 | 899.94 | 1.481
x2 = 0.113 | 900.73 | 1.4808
x2 = 0.2 | 902.2 | 1.4801
x2 = 0.3143 | 904.54 | 1.4795
x2 = 0.4094 | 906.97 | 1.4785
x2 = 0.5016 | 909.92 | 1.4773
x2 = 0.5967 | 913.83 | 1.4757
x2 = 0.7002 | 919.76 | 1.4732
x2 = 0.8004 | 928.35 | 1.47
x2 = 0.9 | 942.61 | 1.463
x2 = 0.9496 | 953.89 | 1.4578

CCCCCCCCCCCCCC[P+](CCCCCC)(CCCCCC)CCCCCC.N#C[N-]C#N [tetradecyl(trihexyl)phosphonium dicyanamide]
Conditions | mass density [kg/m3] | refractive index
[1] | 899.14 | –
[2] | – | 1.48154

CCCCCCn1cc[n+](C)c1.F[B-](F)(F)F [1-hexyl-3-methylimidazolium tetrafluoroborate]
Conditions | mass density [kg/m3] | refractive index
[1] | 1144.46 | –
[2] | – | 1.42844

CC(=O)CC(C)=O [2,4-pentanedione] + CC(CC(C)(C)C)CP(=O)([O-])CC(C)CC(C)(C)C.CCCCCCCCCCCCCC[P+](CCCCCC)(CCCCCC)CCCCCC
Conditions | mass density, [3] [kg/m3] | refractive index, [4]
x1 = 0.0517 | 888.32 | 1.4714
x1 = 0.0958 | 889.43 | 1.4721
x1 = 0.2082 | 892.48 | 1.4731
x1 = 0.2986 | 895.05 | 1.4742
x1 = 0.3991 | 898 | 1.4751
x1 = 0.499 | 901.47 | 1.475
x1 = 0.6013 | 905.75 | 1.4753
x1 = 0.7004 | 911.47 | 1.474
x1 = 0.7998 | 919.31 | 1.4716
x1 = 0.9 | 933.94 | 1.4659
x1 = 0.95 | 946.89 | 1.4602

CC(=O)CC(C)=O [2,4-pentanedione]
Conditions | mass density [kg/m3] | refractive index
[1] | 971.07 | –
[2] | – | 1.4509
